35 compounds from patent publication US8088806B2 (Achillion Pharmaceuticals, Inc., priority 2005, dated 2012) can be followed below.

This assay has as its system HCV replicon. The assay can be described thus: Replicon based assay of HCV replication inhibition (NPT ELISA). To be noted: Hepatitis C virus, Huh-7, 72 h, Table I; Huh-7 HCV replicon-containing cells, three days; read-out: Activity. The class given is cell-based, Hepatitis C virus. On the procedure: Compounds claimed herein are tested for the ability to inhibit viral replication of the Hepatitis C replicon in cultured cells in which the HCV replicon construct has been incorporated. The HCV replicon system was described by Bartenschlager, et. al (Science, 285, pp. 110-113 (1999)). The replicon system is predictive of in vivo anti-HCV activity; compounds that are active in humans uniformly evidence activity in the replicon assay.
In this assay HCV replicon containing cells are treated with different concentrations of the test compound to ascertain the ability of the test compound to suppress replication of the HCV replicon. As a positive control, HCV replicon-containing cells are treated with different concentrations of interferon alpha, a known inhibitor of HCV replication. The replicon assay system includes Neomycin Phosphotransferase (NPT) as a component of the replicon itself in order to detect the transcription of replicon gene products in the host cell. Cells in which the HCV replicon is actively replicating have high levels of NPT; the level of NPT is proportional to HCV replication. […] The NPT level of each sample is measured using a captured ELISA.
A protocol for testing compounds for the ability to inhibit viral replication of the Hepatitis C replicon cultured cells in which the replicon construct has been incorporated, follows.
The HCV replicon contains, 5′-3′, the HCV-IRES, the neomycin phosphotransferase (neo) gene, the IRES of encephalomyocarditis virus, which directs translation of HCV sequences NS3 to NS5B, and the 3′-NTR. The sequence of the HCV replicon has been deposited in GenBank (Accession no. AJ242652).
The replicon is transfected into Huh-7 cells using standard methods such as electroporation.
The equipment and materials include, but are not limited to, Huh-7 HCV replicon-containing cells, maintenance media (DMEM (Dulbecco's modified Eagle media) supplemented with 10% FBS, L-glutamine, non-essential amino acids, penicillin (100 units/ml), streptomycin (100 micrograms/ml), and 500 micrograms/ml of Geneticin (G418), screening media (DMEM supplemented with 10% FBS, L-glutamine, non-essential amino acids, penicillin (100 units/ml) and streptomycin (100 micrograms/ml)), 96 well tissue culture plates (flat bottom), 96 well plates (U bottom for drug dilution), Interferon alpha for positive control, fixation reagent (such as methanol: acetone), primary antibody (rabbit anti-NPTII), secondary antibody: Eu-N1l, and enhancement solution.
The cells are then seeded onto 96-well plates at a density of 6000-7500 cells/100 microliters/well (6-7.5×10^5 cells/10 ml/plate). The plates are then incubated at 37° C. in a 5% CO2 incubator.
HCV replicon-containing cells are rinsed with once PBS once; 2 mls of trypsin are then added. Cells are incubated at 37° C. in a 5% CO2 incubator for 3-5 minutes. 10 mls of complete medium is added to stop the reaction. Cells are blown gently, put into a 15 ml tube, and spun at 1200 rpm for four minutes. The trypsin/medium solution is removed and 5 mls of medium (500 ml DMEM (high glucose)) from BRL catalog #12430-054; 50 mls 10% FBS, 5% Geneticin G418 (50 mg/ml, BRL catalog #10131-035), 5 ml MEM non-essential amino acids (100×BRL #11140-050) and 5 ml pen-strep (BRL # 15140-148) is added. The cells and media are mixed carefully
Cells are plated with screening medium (500 ml DMEM (BRL #21063-029), 50 ml FBS (BRL #10082-147) and 5 ml MEM non-essential amino acid (BRL #11140-050) at 6000-7500 cells/100 μl/well of 96 well plate (6-7.5×10^5 cells/10 ml/plate). Plates are placed into 37° C. 5% CO2 incubator overnight.
The following morning, drugs (test compounds or interferon alpha) are diluted in 96 well U bottom plates with media or DMSO/media, depending on the final concentration chosen for screening. Generally for 6 concentrations of each test compounds ranging from 10 micromolar to 0.03 micromolar are applied. […]
(In general: In antiviral work, replicon cells carry a viral genome segment that copies itself.)
For the compound `Clc1ccc(-c2csc(Nc3ccc(Cc4ccccc4)cc3)n2)cc1Cl` [compound 40, N-(4-benzylphenyl)-4-(3,4-dichlorophenyl)thiazol-2-amine], the EC50 is over 10 µM. The same measure for `Fc1ccc(-c2csc(Nc3ccc(Cc4ccccc4)cc3)n2)c(F)c1` [compound 41, N-(4-benzylphenyl)-4-(2,4-difluorophenyl)thiazol-2-amine]: over 10 µM; for `Clc1ccc(-c2csc(Nc3ccc(Cc4ccccc4)cc3)n2)cc1` [compound 42, N-(4-benzylphenyl)-4-(4-chlorophenyl)thiazol-2-amine]: over 10 µM. The same measure for `Fc1ccc(-c2csc(Nc3ccc(OC(F)(F)F)cc3)n2)cc1` [compound 43, 4-(4-fluorophenyl)-N-(4-(trifluoromethoxy)phenyl)thiazol-2-amine]: over 10 µM; for `FC(F)(F)Oc1ccc(Nc2nc(-c3ccc(Cl)c(Cl)c3)cs2)cc1` [compound 44, 4-(3,4-dichlorophenyl)-N-(4-(trifluoromethoxy)phenyl)thiazol-2-amine]: over 10 µM. The figure for `Fc1ccc(-c2csc(Nc3ccc(OC(F)(F)F)cc3)n2)c(F)c1` [compound 45, 4-(2,4-difluorophenyl)-N-(4-(trifluoromethoxy)phenyl)thiazol-2-amine] is over 10 µM; for `FC(F)(F)Oc1ccc(Nc2nc(-c3ccc(Cl)cc3)cs2)cc1` [compound 46, 4-(4-chlorophenyl)-N-(4-(trifluoromethoxy)phenyl)thiazol-2-amine] it is over 10 µM.

As for `Fc1ccc(-c2csc(Nc3ccc(Cl)c(Cl)c3)n2)cc1` [compound 47, N-(3,4-dichlorophenyl)-4-(4-fluorophenyl)thiazol-2-amine], the EC50 was under 1 µM. As for `Clc1ccc(Nc2nc(-c3ccc(Cl)c(Cl)c3)cs2)cc1Cl` [compound 48, N,4-bis(3,4-dichlorophenyl)thiazol-2-amine], the EC50 was under 1 µM.

In the case of `Fc1ccc(-c2csc(Nc3ccc(Cl)c(Cl)c3)n2)c(F)c1` [compound 49, N-(3,4-dichlorophenyl)-4-(2,4-difluorophenyl)thiazol-2-amine], the EC50 was under 1 µM. The same measure for `Clc1ccc(-c2csc(Nc3ccc(Cl)c(Cl)c3)n2)cc1` [compound 50, N-(3,4-dichlorophenyl)-4-(4-chlorophenyl)thiazol-2-amine]: over 10 µM; for `N#Cc1ccc(Nc2nc(-c3ccc(F)cc3)cs2)cc1` [compound 51, 4-(4-(4-fluorophenyl)thiazol-2-ylamino)benzonitrile]: over 10 µM. The figure for `N#Cc1ccc(Nc2nc(-c3ccc(Cl)c(Cl)c3)cs2)cc1` [compound 52, 4-(4-(3,4-dichlorophenyl)thiazol-2-ylamino)benzonitrile] is over 10 µM; for `N#Cc1ccc(Nc2nc(-c3ccc(F)cc3F)cs2)cc1` [compound 53, 4-(4-(2,4-difluorophenyl)thiazol-2-ylamino)benzonitrile] it is over 10 µM; for `N#Cc1ccc(Nc2nc(-c3ccc(Cl)cc3)cs2)cc1` [compound 54, 4-(4-(4-chlorophenyl)thiazol-2-ylamino)benzonitrile] it is over 10 µM. `N#Cc1cccc(Nc2nc(-c3ccc(F)cc3)cs2)c1` [compound 55, 3-(4-(4-fluorophenyl)thiazol-2-ylamino)benzonitrile]: the EC50 is over 10 µM. The same measure for `N#Cc1cccc(Nc2nc(-c3ccc(Cl)c(Cl)c3)cs2)c1` [compound 56, 3-(4-(3,4-dichlorophenyl)thiazol-2-ylamino)benzonitrile]: over 10 µM; for `N#Cc1cccc(Nc2nc(-c3ccc(F)cc3F)cs2)c1` [compound 57, 3-(4-(2,4-difluorophenyl)thiazol-2-ylamino)benzonitrile]: over 10 µM; for `N#Cc1cccc(Nc2nc(-c3ccc(Cl)cc3)cs2)c1` [compound 58, 3-(4-(4-chlorophenyl)thiazol-2-ylamino)benzonitrile]: over 10 µM. Consider `Fc1ccc(-c2csc(Nc3ccc(Cl)c(C(F)(F)F)c3)n2)cc1` [compound 59, N-(4-chloro-3-(trifluoromethyl)phenyl)-4-(4-fluorophenyl)thiazol-2-amine], for which the EC50 is under 1 µM. The same measure for `FC(F)(F)c1cc(Nc2nc(-c3ccc(Cl)c(Cl)c3)cs2)ccc1Cl` [compound 60, N-(4-chloro-3-(trifluoromethyl)phenyl)-4-(3,4-dichlorophenyl)thiazol-2-amine]: under 1 µM; for `Fc1ccc(-c2csc(Nc3ccc(Cl)c(C(F)(F)F)c3)n2)c(F)c1` [compound 61, N-(4-chloro-3-(trifluoromethyl)phenyl)-4-(2,4-difluorophenyl)thiazol-2-amine]: under 1 µM; for `FC(F)(F)c1cc(Nc2nc(-c3ccc(Cl)cc3)cs2)ccc1Cl` [compound 62, N-(4-chloro-3-(trifluoromethyl)phenyl)-4-(4-chlorophenyl)thiazol-2-amine]: over 10 µM. The same measure for `CCCCCOc1ccc(Nc2nc(-c3ccc(F)cc3)cs2)cn1` [compound 63, N-(4-(4-fluorophenyl)thiazol-2-yl)-6-(pentyloxy)pyridin-3-amine]: under 1 µM; for `CCCCCOc1ccc(Nc2nc(-c3ccc(Cl)c(Cl)c3)cs2)cn1` [compound 64, N-(4-(3,4-dichlorophenyl)thiazol-2-yl)-6-(pentyloxy)pyridin-3-amine]: over 10 µM; for `CCCCCOc1ccc(Nc2nc(-c3ccc(F)cc3F)cs2)cn1` [compound 65, N-(4-(2,4-difluorophenyl)thiazol-2-yl)-6-(pentyloxy)pyridin-3-amine]: over 10 µM. Take `CCCCCOc1ccc(Nc2nc(-c3ccc(Cl)cc3)cs2)cn1` [compound 66, N-(4-(4-chlorophenyl)thiazol-2-yl)-6-(pentyloxy)pyridin-3-amine]: the EC50 is under 1 µM. The same measure for `CCCCCOc1ccc(Nc2nc(-c3cccnc3)cs2)cn1` [compound 67, 6-(pentyloxy)-N-(4-(pyridin-3-yl)thiazol-2-yl)pyridin-3-amine]: under 1 µM; for `CCCCCOc1ccc(Nc2nc(-c3cccnc3)cs2)cc1F` [compound 68, N-(3-fluoro-4-(pentyloxy)phenyl)-4-(pyridin-3-yl)thiazol-2-amine]: under 1 µM; for `c1cncc(-c2csc(Nc3ccc(CN4CCCCC4)cc3)n2)c1` [compound 69, N-(4-((piperidin-1-yl)methyl)phenyl)-4-(pyridin-3-yl)thiazol-2-amine]: over 10 µM.

Take `c1cc(Nc2nc(-c3cccnc3)cs2)cc(OC2Cc3ccccc3C2)c1` [compound 70, N-(3-(2,3-dihydro-1H-inden-2-yloxy)phenyl)-4-(pyridin-3-yl)thiazol-2-amine]: the EC50 is under 1 µM. The same measure for `Fc1cc(Nc2nc(-c3cccnc3)cs2)ccc1OCC1CCCCC1` [compound 71, N-(4-(cyclohexylmethoxy)-3-fluorophenyl)-4-(pyridin-3-yl)thiazol-2-amine]: under 1 µM. The same measure for `Fc1cc(Nc2nc(-c3cccnc3)cs2)ccc1N1CCC(c2ccccc2)CC1` [compound 72, N-(3-fluoro-4-(4-phenylpiperidin-1-yl)phenyl)-4-(pyridin-3-yl)thiazol-2-amine]: under 1 µM; for `FC(F)(F)Oc1cccc(CNc2nc(-c3cccnc3)cs2)c1` [compound 76, N-(3-(trifluoromethoxy)benzyl)-4-(pyridin-3-yl)thiazol-2-amine]: over 10 µM; for `FC(F)(F)Oc1ccc(CNc2nc(-c3cccnc3)cs2)cc1` [compound 77, N-(4-(trifluoromethoxy)benzyl)-4-(pyridin-3-yl)thiazol-2-amine]: over 10 µM.
